According to US11884658B1, “1-cyclopropyl-6-fluoro-4-oxo-7-(4-((2-thioxobenzo[d]thiazol-3(2H)-yl)methyl)piperazin-1-yl)-1,4-dihydroquinoline-3-carboxylic acid as an antimicrobial compound” (KING FAISAL UNIVERSITY, priority 2023, dated 2024):

Columns and labels:
Type in all cases: cell-based
Staphylococcus aureus = assay: agar plate disc-diffusion, inhibition zone; settings: Gram positive; for zone of inhibition at 10000 ppm: A = concentration of comp. = 10,000 ppm; for zone of inhibition at 30000 ppm: B = concentration of comp. = 30000 ppm; for zone of inhibition at 50000 ppm: C = concentration of comp. = 50,000 ppm
Experimental: (§1) The antimicrobial properties of the synthesized compound was studied by the method of agar plate disc-diffusion. Sterilized filter papers (6 mm in diameter) were wetted with 10 μL of a solution of 1-cyclopropyl-6-fluoro-4-oxo-7-(4-((2-thioxobenzo[d]thiazol-3(2H)-yl)methyl)piperazin-1-yl)-1,4-dihydroquinoline-3-carboxylic acid (4) to be tested, containing 10 mg/mL in DMSO and the discs were allowed to air dry. The discs were then placed onto the surface of agar plates (nutrient agar for bacteria) seeded with the test organism. Each plate contained 15 mL of the agar medium, previously seeded with 0.2 mL of the broth culture of each organism pregrown for 18 h. The inhibition zones were measured in […]. Discs impregnated with DMSO were used as a control, and its inhibition zone was subtracted from the tested compound actual inhibition zone.

Escherichia coli = assay: agar plate disc-diffusion, inhibition zone; settings: Gram negative; for zone of inhibition at 10000 ppm: A = concentration of comp. = 10,000 ppm; for zone of inhibition at 30000 ppm: B = concentration of comp. = 30000 ppm; for zone of inhibition at 50000 ppm: C = concentration of comp. = 50,000 ppm
Experimental: as §1

Pseudomonas aeruginosa = assay: agar plate disc-diffusion, inhibition zone; settings: Gram negative; for zone of inhibition at 10000 ppm: A = concentration of comp. = 10,000 ppm; for zone of inhibition at 30000 ppm: B = concentration of comp. = 30000 ppm; for zone of inhibition at 50000 ppm: C = concentration of comp. = 50,000 ppm
Experimental: as §1

Bacillus Cereus = assay: agar plate disc-diffusion, inhibition zone; settings: Gram positive; for zone of inhibition at 10000 ppm: A = concentration of comp. = 10,000 ppm; for zone of inhibition at 30000 ppm: B = concentration of comp. = 30000 ppm; for zone of inhibition at 50000 ppm: C = concentration of comp. = 50,000 ppm
Experimental: as §1

[1] = tested on: gram positive and gram-negative bacterial strains; assay: antibacterial activity screen, overall statement; settings: Bacillus cereus, Staphylococcus aureus, Pseudomonas aeruginosa and Escherichia coli
Experimental: as §1

| Compound | zone of inhibition at 10000 ppm (Staphylococcus aureus) [mm] | zone of inhibition at 30000 ppm (Staphylococcus aureus) [mm] | zone of inhibition at 50000 ppm (Staphylococcus aureus) [mm] | zone of inhibition at 10000 ppm (Escherichia coli) [mm] | zone of inhibition at 30000 ppm (Escherichia coli) [mm] | zone of inhibition at 50000 ppm (Escherichia coli) [mm] | zone of inhibition at 10000 ppm (Pseudomonas aeruginosa) [mm] | zone of inhibition at 30000 ppm (Pseudomonas aeruginosa) [mm] | zone of inhibition at 50000 ppm (Pseudomonas aeruginosa) [mm] | zone of inhibition at 10000 ppm (Bacillus Cereus) [mm] | zone of inhibition at 30000 ppm (Bacillus Cereus) [mm] | zone of inhibition at 50000 ppm (Bacillus Cereus) [mm] | antibacterial activities (in words) [1] |
| --- | --- | --- | --- | --- | --- | --- | --- | --- | --- | --- | --- | --- | --- |
| O=C(O)c1cn(C2CC2)c2cc(N3CCN(Cn4c(=S)sc5ccccc54)CC3)c(F)cc2c1=O [Compound 4, 1-cyclopropyl-6-fluoro-4-oxo-7-(4-((2-thioxobenzo[d]thiazol-3(2H)-yl)methyl)piperazin-1-yl)-1,4-dihydroquinoline-3-carboxylic acid] | 10 | 17 | 22 | 39 | 44 | 49 | 24 | 31 | 39 | 35 | 39 | 44 | good antibacterial activities |
| O=C(O)c1cn(C2CC2)c2cc(N3CCNCC3)c(F)cc2c1=O [Cip., ciprofloxacin, reference compound] | 43 | 44 | 53 | 30 | 39 | 60 | 29 | 30 | 53 | 29 | 30 | 42 | – |
